Measured values: ChEMBL document CHEMBL5653631, “A Potent and Selective ULK1 Inhibitor Suppresses Autophagy and Sensitizes Cancer Cells to Nutrient Stress” (iScience, 2018)

Assays:
[1] = target: T1, Protein kinase C epsilon type (Homo sapiens) (UniProt Q02156); assay: Inhibition of human recombinant PKCe at 500 nM related to control ULK1
T1 sequence (whole entry): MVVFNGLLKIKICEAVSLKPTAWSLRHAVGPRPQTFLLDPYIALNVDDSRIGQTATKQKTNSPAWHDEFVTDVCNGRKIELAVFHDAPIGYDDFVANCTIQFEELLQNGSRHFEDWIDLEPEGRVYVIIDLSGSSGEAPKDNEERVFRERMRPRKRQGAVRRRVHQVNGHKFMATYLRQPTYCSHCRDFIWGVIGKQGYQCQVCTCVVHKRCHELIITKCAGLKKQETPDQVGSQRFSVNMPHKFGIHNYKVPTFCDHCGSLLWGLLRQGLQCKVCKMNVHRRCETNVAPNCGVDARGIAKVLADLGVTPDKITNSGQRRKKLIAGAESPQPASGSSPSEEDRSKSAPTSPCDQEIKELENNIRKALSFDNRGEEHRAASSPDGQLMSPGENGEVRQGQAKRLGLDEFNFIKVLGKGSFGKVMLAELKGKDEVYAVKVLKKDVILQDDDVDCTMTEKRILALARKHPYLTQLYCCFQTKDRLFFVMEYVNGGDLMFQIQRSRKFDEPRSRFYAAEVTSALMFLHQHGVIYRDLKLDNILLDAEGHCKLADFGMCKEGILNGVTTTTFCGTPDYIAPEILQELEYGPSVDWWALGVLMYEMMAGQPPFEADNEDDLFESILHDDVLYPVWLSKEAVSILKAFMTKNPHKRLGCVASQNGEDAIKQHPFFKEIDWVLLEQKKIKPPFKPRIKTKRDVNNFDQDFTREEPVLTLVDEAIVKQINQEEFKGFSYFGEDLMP

[2] = target: T2, Muscle, skeletal receptor tyrosine-protein kinase (Homo sapiens) (UniProt O15146); assay: Inhibition of human recombinant MUSK at 15 nM related to control ULK1
T2 sequence (whole entry): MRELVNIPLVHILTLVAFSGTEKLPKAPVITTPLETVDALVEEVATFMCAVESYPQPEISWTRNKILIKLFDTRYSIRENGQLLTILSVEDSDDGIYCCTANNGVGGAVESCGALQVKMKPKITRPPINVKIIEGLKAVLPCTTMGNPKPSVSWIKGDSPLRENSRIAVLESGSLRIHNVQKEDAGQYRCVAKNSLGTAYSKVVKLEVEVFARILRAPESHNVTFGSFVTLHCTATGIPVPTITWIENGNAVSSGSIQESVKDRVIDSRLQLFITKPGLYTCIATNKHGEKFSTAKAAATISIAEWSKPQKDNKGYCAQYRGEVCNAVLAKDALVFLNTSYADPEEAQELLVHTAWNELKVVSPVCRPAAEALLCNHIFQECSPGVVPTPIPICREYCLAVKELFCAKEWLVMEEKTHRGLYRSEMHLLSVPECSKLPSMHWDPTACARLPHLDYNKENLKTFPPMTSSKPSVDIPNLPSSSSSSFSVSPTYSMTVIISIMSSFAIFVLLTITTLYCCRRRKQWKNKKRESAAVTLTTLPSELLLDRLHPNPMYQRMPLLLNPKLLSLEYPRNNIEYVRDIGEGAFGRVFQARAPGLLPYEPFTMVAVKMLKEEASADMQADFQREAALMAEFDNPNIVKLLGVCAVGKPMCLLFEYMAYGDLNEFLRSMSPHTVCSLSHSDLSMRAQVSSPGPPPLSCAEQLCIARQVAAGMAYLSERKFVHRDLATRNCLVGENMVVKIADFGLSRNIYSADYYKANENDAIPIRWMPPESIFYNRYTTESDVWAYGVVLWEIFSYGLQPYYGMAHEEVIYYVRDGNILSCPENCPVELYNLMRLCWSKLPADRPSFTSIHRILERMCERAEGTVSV

[3] = target: T3, Serine/threonine-protein kinase TAO2 (Homo sapiens) (UniProt Q9UL54); assay: Inhibition of human recombinant TAO2 at 15 nM in presence of ATP by radiometric assay relative to control
T3 sequence (whole entry): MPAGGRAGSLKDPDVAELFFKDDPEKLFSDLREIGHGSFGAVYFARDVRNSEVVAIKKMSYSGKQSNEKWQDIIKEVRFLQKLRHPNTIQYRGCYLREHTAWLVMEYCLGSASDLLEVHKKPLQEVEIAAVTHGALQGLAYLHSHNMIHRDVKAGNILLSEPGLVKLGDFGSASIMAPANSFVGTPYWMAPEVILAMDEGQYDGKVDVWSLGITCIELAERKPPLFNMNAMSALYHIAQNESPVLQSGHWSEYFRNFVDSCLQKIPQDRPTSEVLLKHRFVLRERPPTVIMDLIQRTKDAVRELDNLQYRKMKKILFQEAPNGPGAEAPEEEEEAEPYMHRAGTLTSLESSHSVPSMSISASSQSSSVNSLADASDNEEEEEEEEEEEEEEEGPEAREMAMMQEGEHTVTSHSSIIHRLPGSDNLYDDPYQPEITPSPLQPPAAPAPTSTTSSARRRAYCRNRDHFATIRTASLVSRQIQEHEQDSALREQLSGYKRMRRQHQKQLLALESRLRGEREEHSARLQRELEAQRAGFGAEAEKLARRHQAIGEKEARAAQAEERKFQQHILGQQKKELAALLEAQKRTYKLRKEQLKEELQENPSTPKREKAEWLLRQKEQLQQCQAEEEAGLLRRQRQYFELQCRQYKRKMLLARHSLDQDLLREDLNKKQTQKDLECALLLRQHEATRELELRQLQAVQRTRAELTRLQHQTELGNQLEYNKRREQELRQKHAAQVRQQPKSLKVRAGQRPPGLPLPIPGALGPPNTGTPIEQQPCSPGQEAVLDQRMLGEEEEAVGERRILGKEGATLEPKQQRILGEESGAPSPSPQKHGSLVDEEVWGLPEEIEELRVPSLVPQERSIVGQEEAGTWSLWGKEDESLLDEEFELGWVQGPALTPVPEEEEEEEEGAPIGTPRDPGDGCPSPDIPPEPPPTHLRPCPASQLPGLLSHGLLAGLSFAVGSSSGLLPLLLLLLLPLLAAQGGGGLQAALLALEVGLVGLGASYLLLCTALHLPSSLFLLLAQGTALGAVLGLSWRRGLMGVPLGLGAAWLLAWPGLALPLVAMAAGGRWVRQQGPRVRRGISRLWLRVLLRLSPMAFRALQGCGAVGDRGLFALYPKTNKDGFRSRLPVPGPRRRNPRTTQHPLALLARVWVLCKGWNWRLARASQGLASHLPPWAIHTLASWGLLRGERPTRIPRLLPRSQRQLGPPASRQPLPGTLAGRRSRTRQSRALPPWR

Row | fold change (FC) [1] | fold change (FC) [2] | inhibition [3] [%] | SMILES
1 | 0 | – | – | CNC(=O)c1ccccc1Oc1nc(Nc2cc(OC)c(OC)c(OC)c2)ncc1Br
2 | – | 0 | 0 | CC(C)[C@H](NC(=O)c1cc(-c2cnn3cc(-c4ccc(OCCN5CCCCC5)cc4)cnc23)cs1)C(F)(F)F
